# Laboratory results published in article PMC9569954, “The Antidepressant-like Activity, Effects on Recognition Memory Deficits, Bioavailability, and Safety after Chronic Administration of New Dual-Acting Small Compounds Targeting Neuropsychiatric Symptoms in Dementia” (International Journal of Molecular Sciences, 2022).
# What was measured:
# [1] = system: (+)-MK-801-induced memory deficits; assay: Novel object recognition (NOR) test in (+)-MK-801 treated rats; assay type: in vivo, male Wistar rats; details: rat; for Total Exploratory Time in T2 Session: vehicle 49.67 ± 4.63
# Method: The rats were injected with the respective compounds for 21 consecutive days at the minimum active doses selected previously, based on acute treatment and assessment in the NOR test. The protocol for the NOR test was adapted from the original work and the test was performed according to the previously described protocol, 24 h after the last injection of the investigated compound. The discrimination index (DI) was calculated according to the formula:(7) DI=(EB−EA)/(EA+EB) where EB is the exploration time of novel object during the T2 session and EA is the exploration time of […].
# PQA-AZ4 and PQA-AZ-6 were administered for 60 and 30 min, respectively, before the T1 phase (the familiarization phase). MK-801 was used to attenuate learning and was administered at a dose of 0.1 mg/kg (i.p.) 30 min before the familiarization phase (T1). The total exploration time in T2 was used to determine the influence of the treatment on the exploratory activity of the animals.
# [2] = Ferric-reducing antioxidant power (FRAP) of serum; assay type: in vivo, rats; details: rat, 1 mg/kg/day i.p., 21 days
# Method: The assay was performed according to Benzie and Strain [46] with some modifications. The FRAP working solution was prepared before the start of the analysis, namely, 0.3 mol acetate buffer (pH 3.6), 0.01 mol TPTZ (2,4,6-tripyridyl-s-triazine; Sigma-Aldrich) in 0.04 mol HCl (POCh, Gliwice, Poland), and 0.02 M FeCl3×6H2O in water (iron (III) chloride hexahydrate; Chempur, Piekary Śląskie, Poland) were mixed in a volumetric ratio of 10:1:1 and protected from light.
# Next, 20 µL of the plasma sample tested, brain homogenate, or FeSO4×7H2O solution was mixed with 180 µL of the FRAP working solution. The mixtures obtained were incubated at 37 °C for 30 min and their absorbance was measured at 593 nm. FeSO4×7H2O (100–1000 µM/L) was used for a calibration curve. Deionized water with FRAP solution was used as a blank.
# [3] = system: Bdnf gene; assay: Bdnf gene expression in brain structures (RT-qPCR, ex vivo); design: species or system rats; details: rat, 1 mg/kg/day i.p., 21 days
# Method: Animals in all treatment groups were sacrificed by rapid decapitation immediately after the behavioral tests, when the brains and blood samples were collected. For quantitative reverse transcription-polymerase chain reaction (RT-qPCR), the brains of rats were rapidly removed, and the hippocampus and prefrontal cortex were dissected on an ice-cold glass plate. The tissues were frozen in dry ice and stored at −80 °C until required.
# The total RNA was extracted from tissues using an RNA Isolation kit (Thermo Fisher Scientific, Rockford, IL, USA), and its concentration was normalized to 20 ng/μL. Reverse transcription was performed with a High-Capacity Reverse Transcription Kit (Life Technologies, Grand Island, NY, USA). A qPCR fast 96-well reaction plate was used for the process with TaqMan Gene Expression assay (Life Technologies) for brain-derived neurotrophic factor Bdnf (Rn02531967_s1) on an Applied Biosystems® 7500 Fast Real-Time PCR Instrument (Applied Biosystems, Foster City, CA, USA), according to the manufacturer’s protocol. Glyceraldehyde-3-phosphate dehydrogenase, Gapdh (Rn01775763_g1), was selected as endogenous control, based on the pilot experiment. Relative normalized expression was calculated using the ΔΔCq method.
# [4] = Serum glucose, triglyceride and cholesterol concentrations; assay type: in vivo, rats; details: rat, 1 mg/kg/day i.p., 21 days
# Method: The blood samples were collected immediately after decapitation and then centrifuged at 600× g […], 4 °C, to separate the plasma. The blood was used to determine metabolic parameters such as glucose, cholesterol, and triglyceride levels, together with liver enzymatic activity.
# Standard enzymatic spectrophotometric tests (Biomaxima S.A., Lublin, Poland) were used to determine glucose, cholesterol, and triglyceride levels in the serum. In the presence of an appropriate enzyme, the substrate was converted to a colored compound. Absorbance was measured at a wavelength of 500 nm.
# [5] = Body weight measurement; assay type: in vivo, rats; details: rat, 20-day administration, 1 mg/kg/day i.p.
# Method: Body weight was measured every second day, immediately before the administration of drugs.
# [6] = system: rats; assay: 18-hour spontaneous activity monitoring; assay type: in vivo, male Wistar rats; details: rat, after 20-day administration, 1 mg/kg/day i.p., 18-h monitoring
# Method: Spontaneous activity was measured on the 20th day of the treatment with a special, innovative, radio-frequency identification system (RFID-system), TraffiCage (TSE-Systems, Bad Homburg, Germany). The test was conducted according to the method described previously. The animals had RFID transmitters implanted subcutaneously, which tracked the time they spent in different areas of the cage.
# [7] = system: rats; assay: Forced swim test (FST); assay type: in vivo, male Wistar rats; details: rat
# Method: The rats were injected for 21 consecutive days at a dose of 1 mg/kg, similar to the dose used in acute treatment, as per data presented in Supplementary Materials (Table S1). The FST was conducted according to the method of Porsolt. On the first day of the experiment, the animals were gently placed individually for 15 min in Plexiglas cylinders (40 cm high, 18 cm in diameter) containing 15 cm of water maintained at 23–25 °C. On removal from water, the rats were placed for 30 min in a Plexiglas box under a 60 W bulb to dry. On the following day (24 h later), the rats were replaced in the cylinder and the total duration of immobility was recorded during the whole 5 min test period. Immobility was assigned when no additional activity was observed other than that necessary to keep the rat’s head above the water. Fresh water was used for each animal.
# FST after acute administration of the investigated compounds
# Rats were injected 60 min before the test at a dose of 1 mg/kg. FST was carried out according to the method of Porsolt, and the same procedure was used for chronic treatment.
# Table S1. Effect of acute treatment of PQA-AZ4, PQA-AZ6, and PQ-10 on the immobility time in the […]
# Compound (mg/kg) Immobility time (s)
# Compounds were injected i.p. 60 min before the test. Values represent the means ± SEM of immobility in the FST during a 5 min test session. The data were analyzed using one -way ANOVA, followed by Bonferroni‘s post hoc test; NS = nonsignificant; N=7-8.
# [8] = chronic 1 mg/kg/day i.p., 21 days
SMILES,Total Exploratory Time in T2 Session ([1]; (+)-MK-801 0.1 mg/kg i.p. + vehicle) [s],"total antioxidant activity of serum (Fe2+ formed, FRAP) vs control [2]","Bdnf expression upregulation vs control, hippocampus ([3]; hippocampus (Hipp))","Bdnf expression upregulation vs control, prefrontal cortex ([3]; prefrontal cortex (PFX))",serum glucose concentration vs vehicle [4],serum triglycerides concentration vs vehicle [4],total cholesterol concentration vs vehicle [4],weight gain vs vehicle [5],Total Exploratory Time in T2 Session ([1]; 0.3 mg/kg/day i.p. 21 days + (+)-MK-801 0.1 mg/kg),"effect on (+)-MK-801-induced recognition memory deficits (discrimination index) ([1]; 0.3 mg/kg/day i.p., 21 days, (+)-MK-801 0.1 mg/kg i.p.)",spontaneous activity vs vehicle [6],"Immobility time ([7]; acute 1 mg/kg i.p., 60 min before test, 5 min session, vehicle 255.9 ± 8.6) [s]","antidepressant-like activity in FST [7, 8]","decrease of immobility vs. control group in FST [7, 8]"
"C[C@]12N[C@H](Cc3ccccc31)c1ccccc12 [(+)-MK-801, Dizocilpine, reference compound]",44.00 ± 4.05,,,,,,,,,,,,,
"COc1cc2ncnc(N3CC[C@@H](Oc4cnc5ccccc5n4)C3)c2cc1OC [PQ-10, 6,7-dimethoxy-4-[(3R)-3-(2-quinoxalinyloxy)-1-pyrrolidinyl]-quinazoline, reference compound]",,comparable,about 17 fold,about 34 fold,did not significantly change,did not significantly change,slight but statistically significant (p < 0.05) increase,did not result in a change,"47.13 ± 5.69 F(2,18) = 0.3006; NS s",restored recognition memory deficits,No significant effect,249.1 ± 10.4,showed antidepressant-like properties,about 9%
